≈ marks a conversion by molar mass, not a printed value. Where “and” joins values, the source holds several entries; their conditions need not be identical. Equal values may be shown once. Read-outs that look alike come from different tables or passages of the source. Marks after values point to notes of the source that are not given here.
Legend:
P. digitatum [1] = details: for MFC: 50 μL from mycelium-free well plated on PDA, no pathogen growth; for MFC / MIC: 25 °C; for MIC: lowest peptide concentration completely inhibiting growth for 48 h, spores 1 × 10^4 CFU/mL, 5% PDB, triplicate
Method: The experiment was adapted from the method of Jia et al.. A 180 μL spore suspension (1 × 10^4 CFU/mL), containing 5% potato dextrose broth (PDB) by volume, was mixed with 20 μL of peptide solution in a sterile 96-well microplate and thoroughly mixed. The final peptide concentrations were 0.78, 1.56, 3.12, 6.25, 12.5, 25, 50, and 100 μM, with sterile water as the control. The mixtures were cultured in an incubator at 25 °C for 48 h, and the light absorption at OD600nm was measured using an 800TS full-wavelength microplate reader (Bio Tek Instruments, Inc., Winooski, VT, USA). The minimum inhibitory concentration (MIC) was defined as the lowest peptide concentration completely inhibiting fungus growth for 48 h. Then, a 50 μL sample from the mycelium-free well was plated on PDA and left to culture at 25 °C for 48 h. The minimum fungicidal concentration (MFC) was the peptide concentration at which there was no pathogen growth after 48 h.

sheep red blood cells = details: test range, significantly lower than commercial prochloraz (p < 0.05), results not yet published
P. digitatum mycelia [2] = experiment: Mycelial survival assay (MTT); type: cell-based, Penicillium digitatum; details: 100 μM peptide, 3 h at 25 °C, then MTT 16 h; mean of triplicate
Method: The mycelial survival rate was determined according to by Weerden et al.. A spore suspension (5 × 10^4 CFU/mL) was prepared with 5% PDB and incubated for 24 h at 25 °C. […] The mixtures were cultured at 25 °C for 3 h before the addition of 10 μL of 3-(4,5-dimethylthiazol-2-yl)-2,5-diphenyltetrazolium bromide (MTT; 5 mg/mL; MACKLIN). The plates were then incubated in a dark environment for 16 h, followed by the addition of DMSO (100 μL).

P. digitatum mycelia [3] = experiment: Sytox Green fluorescence microscopy (membrane permeability); type: cell-based, Penicillium digitatum; details: 2 h, Sytox Green 0.2 μM
Method: The experiment protocol was adapted from Li et al.. A spore suspension (10^5 CFU/mL) of 90 μL was prepared with 5% PDB and incubated for 24 h at 25 °C. Subsequently, the peptide solution was added to final concentrations of the MIC, the MFC, and 100 μM, and the mixtures were left for 2 h, with sterile water as the control. After incubation, Sytox Green (Molecular Probes; KeyGen Biotech Co., Nanjing, China) was added at 4 μM and thte final concentration was 0.2 μM and was incubated for 5 min in the dark. The treated samples were washed with sterile water, resuspended in 20% glycerol solution, and prepared and observed under a DM3000 fluorescence microscope (Leica, Weztlar, Germany).

P. digitatum genomic DNA = experiment: DNA binding gel retardation assay; parameters: species or system Penicillium digitatum; details: peptide:DNA 1:1 (v/v), room temperature 30 min, 1% agarose gel
Method: In accordance with Miao et al. with slight adjustments, the gel retardation effect was analyzed. The P. digitatum DNA was extracted according to the operation steps of the TIANGEN plant genome DNA extraction kit. The agarose gel electrophoresis utilized a 1% agarose concentration. […] Electrophoresis was run at 110 V for 25 min, followed by the removal of the rubber plate and placement in the Tanon-2500B (Tanon Science and Technology Co., Ltd., Shanghai, China) for visualization.

P. digitatum [4] = experiment: Fruit decay test, green mold on mandarins; type: in vivo, Penicillium digitatum; details: mean ± SD
Text: This experiment followed the method of Zhou et al. with some adjustments. The effects of three peptides on the control of green mold in citrus in vivo were studied by measuring the incidence rate and spot diameters on the citrus fruit. Mandarins were purchased from a local supermarket and selected for uniform size, ripeness, and a lack of mechanical damage. The mandarins were soaked in 75% alcohol for 30 s and then in 1% NaClO for 30 s, followed by rinsing with sterile water and drying with sterile paper to remove excess surface water. A sterile needle was used to drill holes near the equator (about 3 mm deep), and each mandarin was inoculated with 10 µL of 100 μM concentrations of three peptide solutions and 1 × 10^5 CFU/mL P. digitatum suspension (v/v 1:1), compared with a mixture of equal parts sterile water and P. digitatum suspension. The mandarins were placed in a […] container with sterile wet paper towels in order to preserve their freshness. A humid environment was maintained in the container, and the fruit was stored at room temperature. The incidence rate and spot diameter of the mandarins were measured in accordance with the method of Zhang et al.. Each treatment group contained eight fruits, and each treatment was repeated three times.

P. digitatum [5] = details: against P. digitatum; cited from earlier work
Text: Conidia generated by P. digitatum are disseminated to the surface of fruits via wind, rain, soil dust, and other media. Upon landing on the surface or wound of the fruit, these conidia promptly germinate, leading to fruit decay. […] In the present s ...

[6] = 5 d, 100 μM peptide + spores (1:1), three replicates
[7] = 6 d, 100 μM peptide + spores (1:1), three replicates
[8] = 7 d, 100 μM peptide + spores (1:1), three replicates
[9] = 8 d, 100 μM peptide + spores (1:1), three replicates
[10] = 9 d, 100 μM peptide + spores (1:1), three replicates
[11] = 10 d, 100 μM peptide + spores (1:1), three replicates

CC[C@H](C)[C@H](NC(=O)[C@H](CCCCN)NC(=O)[C@H](CCCCN)NC(=O)[C@H](Cc1ccccc1)NC(=O)[C@H](CC(C)C)NC(=O)[C@H](CCCCN)NC(=O)[C@@H](N)CCCCN)C(=O)N[C@@H](CC(C)C)C(=O)N[C@@H](CCCCN)C(=O)N[C@H](C(=O)N[C@@H](CC(C)C)C(N)=O)C(C)C [BP15]
MFC (P. digitatum [1]; 48 h): 6.25 µM (≈ 8.48 µg/mL) | MIC (P. digitatum [1]; OD600nm): 3.12 µM (≈ 4.23 µg/mL) | hemolytic activity (sheep red blood cells): low hemolysis

CCCCCCCCCCCC(=O)N[C@@H](CCCCN)C(=O)N[C@@H](CCCCN)C(=O)N[C@@H](CC(C)C)C(=O)N[C@@H](Cc1ccccc1)C(=O)N[C@@H](CCCCN)C(=O)N[C@@H](CCCCN)C(=O)N[C@H](C(=O)N[C@@H](CC(C)C)C(=O)N[C@@H](CCCCN)C(=O)N[C@H](C(=O)N[C@@H](CC(C)C)C(N)=O)C(C)C)[C@@H](C)CC [LBP15]
MFC (P. digitatum [1]; 48 h): 6.25 µM (≈ 9.62 µg/mL) | inhibitory effect on P. digitatum growth (P. digitatum [1]; at 0.78 and 1.56 μM, 48 h, OD600nm): No obvious inhibitory effect | MIC (P. digitatum [1]; OD600nm): 3.12 µM (≈ 4.8 µg/mL) | mycelial survival rate (P. digitatum mycelia [2]): 10.40% | SG fluorescence in mycelia (P. digitatum mycelia [3]; peptide at 100 μM): extensive continuous green fluorescence | SG fluorescence in mycelia (P. digitatum mycelia [3]; peptide at 2 MIC): enhanced fluorescence intensity and continuity | SG fluorescence in mycelia (P. digitatum mycelia [3]; peptide at MIC): weak green fluorescence | peptide concentration at which DNA bands were no longer visible (P. digitatum genomic DNA): 50 µM | Spot Diameter (P. digitatum [4]; [6]): 10.80 ± 4.93 ^b mm | Incidence Rate (P. digitatum [4]; [7]): 70.83 ± 19.09 ^b % | Spot Diameter (P. digitatum [4]; [7]): 21.23 ± 4.46 ^b mm | Incidence Rate (P. digitatum [4]; [8]): 80.83 ± 11.54 ^b % | Spot Diameter (P. digitatum [4]; [8]): 34.00 ± 10.39 ^b mm | Incidence Rate (P. digitatum [4]; [9]): 80.83 ± 11.54 ^b % | Spot Diameter (P. digitatum [4]; [9]): 45.60 ± 13.19 ^b mm | Incidence Rate (P. digitatum [4]; [10]): 80.83 ± 11.54 ^b % | Spot Diameter (P. digitatum [4]; [10]): 54.08 ± 12.44 ^b mm | Incidence Rate (P. digitatum [4]; [11]): 87.50% and 87.50 ± 0.00 ^a % | Spot Diameter (P. digitatum [4]; [11]): 69.6 ± 8.37 ^b mm | hemolytic activity (sheep red blood cells): low hemolysis

GHRKKWFW [PAF56, synthetic short cationic antimicrobial peptide (GHRKKWFW), literature comparator]
MIC (P. digitatum [5]): 8 µM

CCCCCC(=O)N[C@@H](CCCCN)C(=O)N[C@@H](CCCCN)C(=O)N[C@@H](CC(C)C)C(=O)N[C@@H](Cc1ccccc1)C(=O)N[C@@H](CCCCN)C(=O)N[C@@H](CCCCN)C(=O)N[C@H](C(=O)N[C@@H](CC(C)C)C(=O)N[C@@H](CCCCN)C(=O)N[C@H](C(=O)N[C@@H](CC(C)C)C(N)=O)C(C)C)[C@@H](C)CC [HBP15]
MFC (P. digitatum [1]; 48 h): 6.25 µM (≈ 9.09 µg/mL) | MIC (P. digitatum [1]; OD600nm): 3.12 µM (≈ 4.54 µg/mL) | mycelial survival rate (P. digitatum mycelia [2]): 16.31% | SG fluorescence in mycelia (P. digitatum mycelia [3]; peptide at 100 μM): extensive continuous green fluorescence | SG fluorescence in mycelia (P. digitatum mycelia [3]; peptide at 2 MIC): enhanced fluorescence intensity and continuity | SG fluorescence in mycelia (P. digitatum mycelia [3]; peptide at MIC): no fluorescence | peptide concentration at which DNA bands were no longer visible (P. digitatum genomic DNA): 25 µM | Spot Diameter (P. digitatum [4]; [6]): 1.41 ± 0.80 ^c mm | Incidence Rate (P. digitatum [4]; 5 d, 10 µL of 100 μM peptide + 1 × 10^5 CFU/mL spores (1:1), room temperature, three replicates of eight fruits): 12.50 ± 0.00 ^c % | Incidence Rate (P. digitatum [4]; [7]): 20.83 ± 7.22 ^c % | Spot Diameter (P. digitatum [4]; [7]): 4.45 ± 0.80 ^c mm | Incidence Rate (P. digitatum [4]; [8]): 37.50 ± 0.00 ^c % | Spot Diameter (P. digitatum [4]; [8]): 9.76 ± 0.84 ^c mm | Incidence Rate (P. digitatum [4]; [9]): 37.50 ± 0.00 ^c % | Spot Diameter (P. digitatum [4]; [9]): 14.81 ± 1.19 ^c mm | Incidence Rate (P. digitatum [4]; [10]): 37.50 ± 0.00 ^c % | Spot Diameter (P. digitatum [4]; [10]): 19.72 ± 1.95 ^c mm | Incidence Rate (P. digitatum [4]; [11]): 41.67 ± 7.22 ^b % | Spot Diameter (P. digitatum [4]; [11]): 23.27 ± 3.61 ^c mm | hemolytic activity (sheep red blood cells): low hemolysis

Reference: article PMC11676762, “Control of Postharvest Green Mold in Citrus by the Antimicrobial Peptide BP15 and Its Lipopeptides” (Journal of Fungi, 2024)
